# Data taken from the supplement of paper PMC13380429.
# ± gives the standard deviation of the averaged measurements.
# What was measured:
# Conditions in all cases: 72 h
# Calu-3 [1] = assay: relative viability EC50 (midpoint between 100% and the lowest measured viability); higher = less toxic
# Caco-2 [2] = assay: as above
# U2OS [3] = assay: as above
# HepG2 [4] = assay: as above
# Vero E6 [5] = assay: as above
# Calu-3 [6] = assay: drug sensitivity score (DSS) for viability; higher = more toxic; extreme values may be limits of the assay
# Caco-2 [7] = assay: as above
# U2OS [8] = assay: as above
# HepG2 [9] = assay: as above
# Vero E6 [10] = assay: as above
# Calu-3 [11] = assay: cell viability relative to DMSO; higher = less toxic
# Caco-2 [12] = assay: as above
# U2OS [13] = assay: as above
# HepG2 [14] = assay: as above
# Vero E6 [15] = assay: as above
SMILES,relative viability EC50 (Calu-3 [1]) [µM],relative viability EC50 (Caco-2 [2]) [µM],relative viability EC50 (U2OS [3]) [µM],relative viability EC50 (HepG2 [4]) [µM],relative viability EC50 (Vero E6 [5]) [µM],drug sensitivity score (Calu-3 [6]),drug sensitivity score (Caco-2 [7]),drug sensitivity score (U2OS [8]),drug sensitivity score (HepG2 [9]),drug sensitivity score (Vero E6 [10]),cell viability (Calu-3 [11]; 1 nM) [%],cell viability (Calu-3 [11]; 10 nM) [%],cell viability (Calu-3 [11]; 100 nM) [%],cell viability (Calu-3 [11]; 1000 nM) [%],cell viability (Calu-3 [11]; 10000 nM) [%],cell viability (Caco-2 [12]; 1 nM) [%],cell viability (Caco-2 [12]; 10 nM) [%],cell viability (Caco-2 [12]; 100 nM) [%],cell viability (Caco-2 [12]; 1000 nM) [%],cell viability (Caco-2 [12]; 10000 nM) [%],cell viability (U2OS [13]; 1 nM) [%],cell viability (U2OS [13]; 10 nM) [%],cell viability (U2OS [13]; 100 nM) [%],cell viability (U2OS [13]; 1000 nM) [%],cell viability (U2OS [13]; 10000 nM) [%],cell viability (HepG2 [14]; 1 nM) [%],cell viability (HepG2 [14]; 10 nM) [%],cell viability (HepG2 [14]; 100 nM) [%],cell viability (HepG2 [14]; 1000 nM) [%],cell viability (HepG2 [14]; 10000 nM) [%],cell viability (Vero E6 [15]; 1 nM) [%],cell viability (Vero E6 [15]; 10 nM) [%],cell viability (Vero E6 [15]; 100 nM) [%],cell viability (Vero E6 [15]; 1000 nM) [%],cell viability (Vero E6 [15]; 10000 nM) [%]
CC(C)NC[C@@H](O)COc1ccccc1-n1cccc1 (racemic) [isamoltane],> 10,> 10,> 10,> 10,> 10,0,0,0,0,0,98.2,99.2,94.9,97.1,98.3,96.3,97.7,93.1,103,107,96.8,99,97.4,107,102,97.1,100,108,105,104,105,97.7,96.1,96.3,102
CC(C)(O)C(=O)Nc1ccc([N+](=O)[O-])c(C(F)(F)F)c1 [2-hydroxyflutamide],> 10,> 10,> 10,> 10,> 10,0,0,0,0,0,100,97.2,97.8,101,107,97.3,90.4,90,96.5,87.9,99,105,103,97.1,94.6,97.6,99.3,92.6,98,98.1,100,102,102,93.9,97
N=C1N[C@H]2[C@H](CS[C@H]2CCCCC(=O)O)N1 [2-iminobiotin],> 10,> 10,> 10,> 10,> 10,0,0,0,0,0,105,98.8,101,118,106,93.6,105,96.8,98.8,98,102,102,99.5,104,98.3,100,102,106,97.6,106,110,106,105,97.5,102
N[C@H](C(=O)O)c1ccc(O)c(C(=O)O)c1 [3-carboxy-4-hydroxyphenylglycine-(S)],> 10,> 10,> 10,> 10,> 10,0,0,0,0,0,96.5 ± 5.7,89 ± 0.99,96 ± 4.8,94.2 ± 3,101 ± 3,95.6 ± 1.8,101 ± 1.3,95.2 ± 2.6,93.4 ± 0.57,101 ± 4.5,101 ± 0.71,101 ± 1.9,103 ± 2.5,94.8 ± 4.5,102 ± 0.49,102.2 ± 0.28,97.5 ± 5.9,98.7 ± 0.28,100 ± 2.3,100 ± 1.3,104 ± 7.1,103.7 ± 0.35,99 ± 2.3,106 ± 3.2,101 ± 2.1
Cn1cnc(N)c2ncnc1-2 [3-methyladenine],> 10,> 10,> 10,> 10,> 10,0,0,0,0,0,104,101,95.2,106,106,99.3,94.8,108,102,100,103,97.1,98.3,97.9,99.8,103,102,89.6,101,90.5,95.1,103,102,96.6,96.5
"C1CCC2(CC1)CCNCC2 [4,4-pentamethylenepiperidine]",> 10,> 10,> 10,> 10,> 10,0,0,0,0,0,99.2,96.3,109,95.1,101,99.9,93,97.4,91.2,102,97.2,95.3,95.2,94.9,91.7,104,90.7,96,102,96.7,102,101,100,104,98.7
Cc1cc(=O)oc2c(C=O)c(O)ccc12 [4-mu-8C],> 10,> 10,> 10,> 10,> 10,0,0,0,0.6,0,102,92.7,118,110,97.9,98,95.5,101,104,87.1,107,101,97.8,100,99,106,106,111,87.4,89.3,97.6,104,102,102,100
CC(=O)O[C@@]12CO[C@@H]1C[C@H](O)[C@@]1(C)C(=O)[C@H](O)C3=C(C)[C@@H](O)C[C@@](O)([C@@H](OC(=O)c4ccccc4)[C@H]21)C3(C)C [10-deacetylbaccatin],> 10,> 10,> 10,> 10,> 10,0,0,0,0,0,105,95.6,94.9,97.4,108,102,110,92.6,99,102,98.4,99.3,104,102,107,93.9,105,97.3,108,108,97.6,96.1,95.6,95.1,106
CC(=N)NCc1cccc(CN)c1 [1400W],> 10,> 10,> 10,> 10,> 10,0,0,0,0,0,102,93,91.2,108,109,112,92.6,103,92.2,103,103,94.6,104,98,104,102,100,105,94.4,97,103,98.3,99.9,102,97.7
COc1c(Nc2ccc(S(C)(=O)=O)nc2C)ncnc1OC1CCN(C(=O)OC(C)C)CC1 [APD597],> 10,> 10,> 10,> 10,> 10,0,0,0,0.1,0,106,105,106,109,98.7,96.5,96.2,103,93.4,90.2,99.5,99.1,99.6,99.7,100,99.6,104,94.4,94.6,86.3,106,98.2,97,100,95.5
COc1cc(OC)cc(-c2ccc3c(-c4ccc(F)cc4)n[nH]c3n2)c1 [APcK-110],> 10,> 10,> 10,> 10,> 10,0,0,0,0,0,99.5,110,104,103,97.3,94.5,98.3,97.6,96.3,99.9,93.5,99.5,97.9,99.9,103,99.8,90.1,101,98.1,107,99.1,89.9,97.1,93.3,108
COc1ccc(-c2ccc3c(N4CCOC[C@@H]4C)nc(N4CCOC[C@@H]4C)nc3n2)cc1CO [AZD8055],0.0265,0.0545,0.101,0.0808,0.123,23,18.8,20,19.7,15,101,83.7,37.6,26.4,27.2,94.3,88.2,54,34.6,28.2,99,102,57.5,22.8,16.1,99.4,90.8,54.7,27.1,18.9,96.9,89.7,69.9,40.1,30.3
C[C@@H](Nc1cc(F)cc(F)c1)c1cc(C(=O)N(C)C)cc2c(=O)cc(N3CCOCC3)oc12 [AZD8186],0.6,0.2,> 10,> 10,> 10,6.4,8.8,1.7,1.5,3.8,88.4,100,82.8,76.4,47.8,90.7,78.2,84.1,75.3,48,96.2,97.3,96.8,87.9,76.9,101,92.2,96.5,92,75.7,96.8,95.6,89.2,78.9,75
CCCCC(=O)O[C@]1(C(=O)CO)[C@@H](C)C[C@H]2[C@@H]3CCC4=CC(=O)C=C[C@]4(C)[C@@]3(F)[C@@H](O)C[C@@]21C [BETAMETHASONE VALERATE],> 10,> 10,> 10,> 10,> 10,0,0,0,0.6,0,105,101,95.2,93.7,117,103,86.2,113,110,96.1,95.8,96.2,95,94.8,92.4,107,114,90,107,76.4,105,102,95.4,91.1,95.6
